Measurements reported in US20070190523A1 (priority 2002, published 2007).

System: mutant HIV-1 with I84V/L90M mutations
Assay type: cell-based
Details: I84V/L90M mutant

SMILES	I84V/L90M fold change
COc1ccc(S(=O)(=O)N(CC(C)C)CC(O)C(Cc2ccc(OCc3ccccc3)cc2)NC(=O)OC2COC3OCCC23)cc1 (stereo not drawn)	− (≦3)
COc1ccc(S(=O)(=O)N(CCN(C)C)CC(O)C(Cc2ccc(O)cc2)NC(=O)OC2COC3OCCC23)cc1 (stereo not drawn)	− (≦3)
COc1ccc(S(=O)(=O)N(CCN(C)C)CC(O)C(Cc2ccc(OCc3ccccc3)cc2)NC(=O)OC2COC3OCCC23)cc1 (stereo not drawn)	− (≦3)
CCOC(=O)C(C)OP(=O)(Cc1ccc2c(c1)CCN(C[C@H](NC(=O)O[C@H]1CO[C@H]3OCC[C@H]31)[C@H](O)CN(CC(C)C)S(=O)(=O)c1ccc(OC)cc1)C2)Oc1ccccc1 (stereo partly drawn)	+ (>3 to ≦10)
Cc1cccc(C)c1OCC(=O)NC(Cc1ccc(OCP(=O)(O)O)cc1)C(O)CN(CC(C)C)S(=O)(=O)c1ccc(N)cc1 (stereo not drawn)	− (≦3)
Cc1cccc(C)c1OCC(=O)NC(Cc1ccc(OCP(=O)(OCc2ccccc2)OCc2ccccc2)cc1)C(O)CN(CC(C)C)S(=O)(=O)c1ccc(N)cc1 (stereo not drawn)	− (≦3)
Cc1ccc(C(=O)NC(Cc2ccc(OCP(=O)(OCc3ccccc3)OCc3ccccc3)cc2)C(O)CN(CC(C)C)S(=O)(=O)c2ccc(N)cc2)cc1O (stereo not drawn)	+ (>3 to ≦10)
CC(C)CN(CC(O)C(Cc1ccc(OCP(=O)(O)O)cc1)NC(=O)OC1COC2OCCC12)S(=O)(=O)c1ccc(N)cc1 (stereo not drawn)	− (≦3)
CCOP(=O)(COc1ccc(CC(NC(=O)OC2COC3OCCC23)C(O)CN(CC(C)C)S(=O)(=O)c2ccc(N)cc2)cc1)OCC (stereo not drawn)	− (≦3)
CCOP(=O)(COc1ccc(CC(NC(=O)OC2COC3OCCC23)C(O)CN(CC(C)C)S(=O)(=O)c2ccc([N+](=O)[O-])cc2)cc1)OCC (stereo not drawn)	− (≦3)
CCNc1ccc(S(=O)(=O)N(CC(C)C)CC(O)C(Cc2ccc(OCP(=O)(OCC)OCC)cc2)NC(=O)OC2COC3OCCC23)cc1 (stereo not drawn)	− (≦3)
CC(C)CN(CC(O)C(Cc1ccc(OCP(=O)(OCc2ccccc2)OCc2ccccc2)cc1)NC(=O)OC1COC2OCCC12)S(=O)(=O)c1ccc(N)cc1 (stereo not drawn)	− (≦3)
CC(C)CN(CC(O)C(Cc1ccc(OCP(=O)(O)O)cc1)NC(=O)OC1COC2OCCC12)S(=O)(=O)c1cccc(N)c1 (stereo not drawn)	− (≦3)
CCOP(=O)(COc1ccc(CC(NC(=O)OC2COC3OCCC23)C(O)CN(CC(C)C)S(=O)(=O)c2cccc(N)c2)cc1)OCC (stereo not drawn)	− (≦3)
CC(C)CN(CC(O)C(Cc1ccc(OCP(=O)(OCc2ccccc2)OCc2ccccc2)cc1)NC(=O)OC1COC2OCCC12)S(=O)(=O)c1cccc(N)c1 (stereo not drawn)	− (≦3)
CCCCOC(=O)C(C)OP(=O)(COc1ccc(CC(NC(=O)OC2COC3OCCC23)C(O)CN(CC(C)C)S(=O)(=O)c2cccc(N)c2)cc1)Oc1ccccc1 (stereo not drawn)	− (≦3)
CC(C)CN(CC(O)C(Cc1ccc(OCP(=O)(OCc2ccccc2)OCc2ccccc2)cc1)NC(=O)OC1COC2OCCC12)S(=O)(=O)c1ccccc1 (stereo not drawn)	+ (>3 to ≦10)
CC(C)CN(CC(O)C(Cc1ccc(OCP(=O)(OCc2ccccc2)OCc2ccccc2)cc1)NC(=O)OC1COC2OCCC12)S(=O)(=O)c1ccc(C(F)(F)F)cc1 (stereo not drawn)	− (≦3)
CC(C)CN(CC(O)C(Cc1ccc(OCP(=O)(OCc2ccccc2)OCc2ccccc2)cc1)NC(=O)OC1COC2OCCC12)S(=O)(=O)c1ccc(C#N)cc1 (stereo not drawn)	− (≦3)
CC(C)CN(CC(O)C(Cc1ccccc1)NC(=O)OC1COC2OCCC12)S(=O)(=O)c1ccc(O)cc1 (stereo not drawn)	− (≦3)
CC(C)CN(CC(O)C(Cc1ccccc1)NC(=O)OC1COC2OCCC12)S(=O)(=O)c1ccc(OCP(=O)(O)O)cc1 (stereo not drawn)	− (≦3)
COc1ccc(S(=O)(=O)N(CC(C)C)CC(O)C(Cc2ccccc2)NC(=O)OC2COC3OCCC23)cc1O (stereo not drawn)	− (≦3)
COc1ccc(S(=O)(=O)N(CC(C)C)CC(O)C(Cc2ccccc2)NC(=O)OC2COC3OCCC23)cc1OCP(=O)(O)O (stereo not drawn)	− (≦3)
CCOP(=O)(COc1cc(S(=O)(=O)N(CC(C)C)CC(O)C(Cc2ccccc2)NC(=O)OC2COC3OCCC23)ccc1O)OCC (stereo not drawn)	− (≦3)
CC(C)CN(C[C@@H](O)[C@H](Cc1ccc(OCP(=O)(Oc2ccccc2)Oc2ccccc2)cc1)NC(=O)OC1CCOC1)S(=O)(=O)c1ccc(N)cc1 (stereo partly drawn) [NH2, phenol]	− (≦3)
CC(C)CN(CC(O)C(Cc1ccc(O)cc1)NC(=O)OC1COC2OCCC12)S(=O)(=O)c1cccc(N)c1 (stereo not drawn) [OH, m-NH2]	− (≦3)
CC(C)CN(CC(O)C(Cc1ccc(O)cc1)NC(=O)OC1COC2OCCC12)S(=O)(=O)c1ccc(N)cc1 (stereo not drawn) [OH, p-NH2]	− (≦3)
COc1ccc(S(=O)(=O)N(CC(C)C)C[C@@H](O)[C@H](Cc2ccc(OCP(=O)(O)O)cc2)NC(=O)OC2CCOC2)cc1 (stereo partly drawn) [OMe, OH]	+++ (>30)
COc1ccc(S(=O)(=O)N(CC(C)C)C[C@@H](O)[C@H](Cc2ccc(OCP(=O)(Oc3ccccc3)Oc3ccccc3)cc2)NC(=O)OC2CCOC2)cc1 (stereo partly drawn) [OMe, phenol]	+ (>3 to ≦10)

Same assay, conditions: fold difference in EC50 vs wild type, class symbols

SMILES	I84V/L90M fold change
CCOP(=O)(CN1CC=C(CC(NC(=O)OC2COC3OCCC23)C(O)CN(CC(C)C)S(=O)(=O)c2ccc(OC)cc2)CC1)OCC (stereo not drawn)	+ (>3 to ≦10)
COc1ccc(S(=O)(=O)N(CC(C)C)CC(O)C(CC2=CCN(CCP(=O)(OCc3ccccc3)OCc3ccccc3)CC2)NC(=O)OC2COC3OCCC23)cc1 (stereo not drawn)	+ (>3 to ≦10)
CCOP(=O)(CCC1=CCN(CC(NC(=O)OC2COC3OCCC23)C(O)CN(CC(C)C)S(=O)(=O)c2ccc(OC)cc2)CC1)OCC (stereo not drawn)	+ (>3 to ≦10)
CCOP(=O)(Cc1ccc(NCC(NC(=O)OC2COC3OCCC23)C(O)CN(CC(C)C)S(=O)(=O)c2ccc(OC)cc2)cc1)OCC (stereo not drawn)	+ (>3 to ≦10)
CCOP(=O)(Cc1ccc(N(C)CC(NC(=O)OC2COC3OCCC23)C(O)CN(CC(C)C)S(=O)(=O)c2ccc(OC)cc2)cc1)OCC (stereo not drawn)	+ (>3 to ≦10)
CCOP(=O)(OCC)c1ccc(CN(C)CC(NC(=O)OC2COC3OCCC23)C(O)CN(CC(C)C)S(=O)(=O)c2ccc(OC)cc2)cc1 (stereo not drawn)	− (≦3)
CCOP(=O)(Cc1ccc2c(c1)CCN(CC(NC(=O)OC1COC3OCCC13)C(O)CN(CC(C)C)S(=O)(=O)c1ccc(OC)cc1)C2)OCC (stereo not drawn)	+ (>3 to ≦10)
CCOP(=O)(CNc1ccc(CC(NC(=O)OC2COC3OCCC23)C(O)CN(CC(C)C)S(=O)(=O)c2ccc(OC)cc2)cc1)OCC (stereo not drawn)	− (≦3)
COc1ccc(S(=O)(=O)N(CC(C)C)CC(O)C(Cc2ccc(NCP(=O)(OCc3ccccc3)OCc3ccccc3)cc2)NC(=O)OC2COC3OCCC23)cc1 (stereo not drawn)	− (≦3)
COC(=O)N[C@H](C(=O)N[C@@H](Cc1ccccc1)[C@@H](O)CN(Cc1ccc(-c2ccccn2)cc1)NC(=O)[C@@H](NC(=O)OC)C(C)(C)C)C(C)(C)C [Atazanavir, reference compound]	+++ (>30)
COc1ccc(S(=O)(=O)N(CC(C)C)CC(O)C(Cc2ccc(OCP(=O)(OCc3ccccc3)OCc3ccccc3)cc2)NC(=O)OC2COC3OCCC23)cc1 (stereo not drawn) [drawing 602 R1=OBn R2=OBn]	− (≦3)
CCOP(=O)(COc1ccc(CC(NC(=O)OC2COC3OCCC23)C(O)CN(CC(C)C)S(=O)(=O)c2ccc(OC)cc2)cc1)OCC (stereo not drawn) [drawing 602 R1=OEt R2=OEt]	− (≦3)
COc1ccc(S(=O)(=O)N(CC(C)C)CC(O)C(Cc2ccc(OCP(=O)(O)O)cc2)NC(=O)OC2COC3OCCC23)cc1 (stereo not drawn) [drawing 602 R1=OH R2=OH]	− (≦3)
COc1ccc(S(=O)(=O)N(CC(C)C)CC(O)C(Cc2ccc(OCP(=O)(OC(C)C)OC(C)C)cc2)NC(=O)OC2COC3OCCC23)cc1 (stereo not drawn) [drawing 602 R1=OiPr R2=OiPr]	− (≦3)
CCOP(=O)(OCC)c1ccc(CC(NC(=O)OC2COC3OCCC23)C(O)CN(CC(C)C)S(=O)(=O)c2ccc(OC)cc2)cc1 (stereo not drawn) [drawing 604 R1=OEt R2=OEt]	− (≦3)
CCNP(=O)(COc1ccc(CC(NC(=O)OC2COC3OCCC23)C(O)CN(CC(C)C)S(=O)(=O)c2ccc(OC)cc2)cc1)NCC (stereo not drawn) [drawing 606 R1=NHEt R2=NHEt]	− (≦3)
CCOC(=O)C(NP(=O)(COc1ccc(CC(NC(=O)OC2COC3OCCC23)C(O)CN(CC(C)C)S(=O)(=O)c2ccc(OC)cc2)cc1)NC(C(=O)OCC)C(C)C)C(C)C (stereo not drawn) [drawing 606 R1=Val-Et R2=Val-Et]	− (≦3)
CCOC(=O)C(C)OP(=O)(COc1ccc(CC(NC(=O)OC2COC3OCCC23)C(O)CN(CC(C)C)S(=O)(=O)c2ccc(OC)cc2)cc1)OC(C)C(=O)OCC (stereo not drawn) [drawing 607 R1=Lac-Et R2=Lac-Et]	− (≦3)
COc1ccc(S(=O)(=O)N(CC(C)C)CC(O)C(Cc2ccc(OCP(=O)(OC(C)C(=O)OC(C)C)OC(C)C(=O)OC(C)C)cc2)NC(=O)OC2COC3OCCC23)cc1 (stereo not drawn) [drawing 607 R1=Lac-iPr R2=Lac-iPr]	− (≦3)
CCOC(=O)C(C)NP(=O)(COc1ccc(CC(NC(=O)OC2COC3OCCC23)C(O)CN(CC(C)C)S(=O)(=O)c2ccc(OC)cc2)cc1)OCc1ccccc1 (stereo not drawn) [drawing 608 R1=OBn R2=Ala-Et]	− (≦3)
COc1ccc(S(=O)(=O)N(CC(C)C)CC(O)C(Cc2ccc(OCP(=O)(NC(C)C(=O)OC(C)C)Oc3ccccc3)cc2)NC(=O)OC2COC3OCCC23)cc1 (stereo not drawn) [drawing 608 R1=OPh R2=(D)Ala-iPr]	− (≦3)
CCCCOC(=O)C(C)NP(=O)(COc1ccc(CC(NC(=O)OC2COC3OCCC23)C(O)CN(CC(C)C)S(=O)(=O)c2ccc(OC)cc2)cc1)Oc1ccccc1 (stereo not drawn) [drawing 608 R1=OPh R2=Ala-Bu]	− (≦3)
COC(=O)C(C)NP(=O)(COc1ccc(CC(NC(=O)OC2COC3OCCC23)C(O)CN(CC(C)C)S(=O)(=O)c2ccc(OC)cc2)cc1)Oc1ccccc1 (stereo not drawn) [drawing 608 R1=OPh R2=Ala-Me]	− (≦3)
COc1ccc(S(=O)(=O)N(CC(C)C)CC(O)C(Cc2ccc(OCP(=O)(NC(C)C(=O)OC(C)C)Oc3ccccc3)cc2)NC(=O)OC2COC3OCCC23)cc1 (stereo not drawn) [drawing 608 R1=OPh R2=Ala-iPr]	− (≦3)
CCCCOC(=O)CNP(=O)(COc1ccc(CC(NC(=O)OC2COC3OCCC23)C(O)CN(CC(C)C)S(=O)(=O)c2ccc(OC)cc2)cc1)Oc1ccccc1 (stereo not drawn) [drawing 608 R1=OPh R2=Gly-Bu]	− (≦3)
